Data set [1] in a line: solubility in water, dilute hydrochloric acid and Carmody's buffer by absorbance at 317 nm. It is filed as physicochemical. As to conditions: 25° C. The protocol:
The solubility of the N-ethoxycarbonyl-3-[4-(4-benzoylbutyl)piperazin-1-yl]sydnonimine obtained in Example 1 in water dilute hydrochloric acid and the Carmody's buffer was measured by the absorbance of the solution at 317 nm.

A short description of data set [2]: acute toxicity in male dd-strain mice. As to conditions: mouse, in vivo. How it is done: The acute toxicity of the in vivo active type of this typical compound as a prodrug was tested by using male dd-strain mice (body weight 16 to 20 g).
For data set [3], the system named is extracted heart of a guinea pig. The data set is described as follows: coronary blood flow, Langendorf's method, extracted heart. As to conditions: 0.1 ml of 10^-4 g/ml solution injected. The protocol:
The increase or decrease of the coronary blood flow was examined by the Langendorf's method using the extracted heart of a guinea pig. […] On the other hand, when 0.1 ml of morsydmine (10^-4 g/ml solution) was injected, no increase in the coronary blood flow was observed.

Data set [4] in a line: water solubility of the salts. It is filed as physicochemical.
The subject of data set [5] is human platelet aggregation. Briefly: collagen-induced human platelet aggregation inhibiting activity, in vitro. The class given is cell-based. The following applies: human platelets, read-out: Platelet aggregation inhibiting activity (50% inhibition). The text has this:
(§1) Table 1 summarizes the results of in vitro tests in which the human platelet aggregation inyibitory activity of the 3-[4-(benzoylalkyl)piperazin-1-yl]sydnonimines of formula (2) and their relaxing activity on the extracted mesenteric artery of a rabbit were examined.
(§2) The mesenteric artery relaxing activity is shown by the […] (μM) of a drug required to induce 50% of the maximum relaxation, and the platelet aggregation inhibiting activity, by the concentration (μM) of a drug required to inhibit collagen-induced platelet aggregation to an extent of 50%.

The subject of data set [6] is extracted mesenteric artery of a rabbit. The data set is described as follows: mesenteric artery relaxing activity, in vitro (extracted artery). The following applies: Oryctolagus cuniculus, read-out: Mesenteric artery relaxing activity (50% of the maximum relaxation).
Description: as §1, §2

Data set [7] deals with cerebral cortex. Briefly: blood flow in the cerebral cortex (cross thermocouple method). The class given is in vivo, rabbit. The following applies: 0.5 mg/kg via retroauricular vein. How it is done: Male rabbits having a body weight of about 3 kg, five per group, were used. Under sodium pentobarbital anesthesia, a tracheal cannula was inserted into each rabbits, and under artificial respiration, 2 mg of gallamine triethiodide was intravenously injected to immobilize the animals. The animals were each fixed to a brain stereotaxic apparatus (Todai Noken type). An element of the double needle type (WN-301, manufactured by Unique Medical Co.) was inserted into the frontal contex through a hole provided by a dental drill, and variations in potential were recorded. After the blood flow was stabilized, the test drug and a control drug were each administered through a cannula inserted into the retroauricular vein of the right ear. The percent increase in the blood flow was calculated by taking the blood flow at death as 0 and the blood flow before drug administration as 100%. When the compound A (0.5 mg/kg) was administered as the test drug, the blood flow increased by 10 to 20%. But when the control drug, morsydmine, (0.5 mg/kg) was administered, no increase in the blood flow was noted.

The subject of data set [8] is amygdaloid nucleus. The data set is described as follows: local cerebral blood flow, amygdaloid nucleus (hydrogen gas clearance method). It is filed as in vivo, rabbit. As to conditions: 0.5 mg/kg i.v.; until 1 hour after administration; based on blood flow before administration. The protocol:
(a) Activity on the hippocampus and amygdaloid nucleus (by the hydrogen gas clearance method) Rabbits having a body weight of about 3 kg, five per group, were used. A tracheal cannula was inserted into each rabbit under sodium pentobarbital anesthesia, and under artificial respiration, gallamine triethiodide was intravenously administered in a dose of 2 mg/kg to immobilize it. The animal was then fixed to a brain stereotaxic apparatus (Todai Noken type). Gallamine triethiodide was also intramuscularly administered in a dose of 3 mg/kg every one hour.
The local cerebral blood flow was measured by the hydrogen gas clearance method (UH meter, PHG-201, manufactured by Unique Medical Co., Ltd.). Platinum electrodes having a diameter of 300 μm and coated with an epoxy resin were inserted in the hippocampus (P:4, L:5, H:+5) and the amygdaloid nucleus (A:2, L:6, H:-6) in accordance with the brain atlas of Sawyer et al. An indifferent electrode was placed under the skin of the head and fixed there. […] The resulting curve was plotted semilogarithmically, and the half-time period (T 1/2) was determined by the initial slope method. The blood flow was calculated from the following equation.
The blood flow was measured every thirty minutes. […]

Values after ≈ are worked out from the molar mass of the structure shown. Counter-ions that a name gives are not always drawn. Like-named read-outs stand apart in the source and are kept apart here.

As to `CCOC(=O)[N-]c1c[n+](N2CCN(CCCCC(=O)c3ccccc3)CC2)no1` [Compound A, N-carboethoxy-3-[4-(4-benzoylbutyl)piperazin-1-yl]sydnonimine], the solubility worked out at 2300 µg/mL (≈ 5.73 mM) in data set [1] (0.001 n hydrochloric acid, 0.001 N (pH 3), read-out: Solubility in dilute hydrochloric acid); 6300 µg/mL (≈ 15.7 mM) in data set [1] (0.01 n hydrochloric acid, 0.01 N (pH 2), read-out: Solubility in dilute hydrochloric acid); 10400 µg/mL (≈ 25.9 mM) in data set [1] (0.1 n hydrochloric acid, 0.1 N (pH 1), read-out: Solubility in dilute hydrochloric acid); 15600 µg/mL (≈ 38.9 mM) in data set [1] (carmody's buffer, pH 2, read-out: Solubility in Carmody's buffer); 9300 µg/mL (≈ 23.2 mM) in data set [1] (carmody's buffer, pH 3, read-out: Solubility in Carmody's buffer); 4400 µg/mL (≈ 11 mM) in data set [1] (carmody's buffer, pH 4, read-out: Solubility in Carmody's buffer). Also, the solubility stood at 1000 µg/mL (≈ 2.49 mM) in data set [1] (carmody's buffer, pH 5, read-out: Solubility in Carmody's buffer); 400 µg/mL (≈ 0.996 mM) in data set [1] (carmody's buffer, pH 6, read-out: Solubility in Carmody's buffer); 100 µg/mL (≈ 0.249 mM) in data set [1] (carmody's buffer, pH 7, read-out: Solubility in Carmody's buffer); 10 µg/mL (≈ 0.0249 mM) in data set [1] (water, read-out: Solubility in water).
As for `CCOC(=O)[N-]c1c[n+](N2CCN(CCCCC(=O)c3ccccc3)CC2)no1` [Compound A], the median lethal dose (LD50) was determined as 91 mg/kg in data set [2] (intravenous administration); 750 mg/kg in data set [2] (oral administration); 350 mg/kg in data set [2] (sc, subcutaneous administration). In addition, the activation at 100 µg/mL in data set [3] (Cavia porcellus, read-out: increase in the coronary blood flow) was 14%.
For the compound `CCOC(=O)[N-]c1c[n+](N2CCN(CCCCC(=O)c3ccccc3)CC2)no1` [Hydrochloride, N-ethoxycarbonyl-3-[4-(4-benzoylbutyl)-piperazin-1-yl]sydnonimine], the Solubility in water in data set [4] is 0.89%.
Still for that read-out and setting: as for `CCOC(=O)[N-]c1c[n+](N2CCN(CCCCC(=O)c3ccccc3)CC2)no1` [Maleate, N-ethoxycarbonyl-3-[4-(4-benzoylbutyl)-piperazin-1-yl]sydnonimine], the figure is 0.94%; as for `CCOC(=O)[N-]c1c[n+](N2CCN(CCCCC(=O)c3ccccc3)CC2)no1` [Nitrate, N-ethoxycarbonyl-3-[4-(4-benzoylbutyl)-piperazin-1-yl]sydnonimine], 0.43%; as for `CCOC(=O)[N-]c1c[n+](N2CCN(CCCCC(=O)c3ccccc3)CC2)no1` [Oxalate, N-ethoxycarbonyl-3-[4-(4-benzoylbutyl)-piperazin-1-yl]sydnonimine], 0.46%.
Regarding `[NH-]c1c[n+](N2CCN(CC(=O)c3ccccc3)CC2)no1` [R = H, n = 0, 3-[4-(benzoylmethyl)piperazin-1-yl]sydnonimine dihydrochloride], in data set [5], the IC50 is 140 nM. Besides, the EC50 in data set [6] was found to be 160 nM.
In the case of `[NH-]c1c[n+](N2CCN(CCCC(=O)c3ccccc3)CC2)no1` [R = H, n = 2], the IC50 in data set [5] is 5400 nM. Besides, the EC50 in data set [6] is 2300 nM.
As for `[NH-]c1c[n+](N2CCN(CCCCC(=O)c3ccccc3)CC2)no1` [R = H, n = 3, 3-[4-(4-benzoylbutyl)piperazin-1-yl]sydnonimine dihydrochloride], in data set [5], the IC50 worked out at 3400 nM. The EC50 in data set [6] amounted to 200 nM.
Take `[NH-]c1c[n+](N2CCN(CCCCCC(=O)c3ccccc3)CC2)no1` [R = H, n = 4]: the IC50 in data set [5] came out at 6300 nM. Also, the EC50 in data set [6] was 3000 nM.
As for `[NH-]c1c[n+](N2CCN(CCCCCCC(=O)c3ccccc3)CC2)no1` [R = H, n = 5], in data set [5], the IC50 stood at 940 nM. In data set [6], the EC50 is 120 nM.
`[NH-]c1c[n+](N2CCN(CCCCCCCCC(=O)c3ccccc3)CC2)no1` [R = H, n = 7, 3-[4-(8-benzoyloctyl)piperazin-1-yl]sydnonimine dihydrochloride]: the IC50 in data set [5] amounted to 28 nM. Also, the EC50 in data set [6] turned out to be 58 nM.
Regarding `CC(C)CC(CCCN1CCN([n+]2cc([NH-])on2)CC1)C(=O)c1ccccc1` (stereo not shown) [R = iso-C4 H9, n = 3, 3-[4-(benzoyl-6-methylheptyl)piperazin-1-yl]sydnonimine dihydrochloride], in data set [5], the IC50 was found to be 11000 nM.
Consider `CCOC(=O)[N-]c1c[n+](N2CCOCC2)no1` [morsydmine], for which the “blood flow in the cerebral cortex, result in words” value in data set [7] is recorded as “no increase”. In addition, in data set [8], the “increase of local cerebral blood flow at the amygdaloid nucleus” value is listed as “about 15%”. The “coronary blood flow, result in words” value in data set [3] was “no increase”.

The term solubility denotes the concentration that dissolves in the medium under given conditions. By LD50 is commonly meant the dose at which mortality reaches 50%. High values mean a less toxic substance, low ones a more toxic substance.

(Values after patent US4430342A, “N-Acyl-3-[4-(benzoylalkyl)piperazin-1-yl]-sydnonimine compound, process for prodction thereof, and use thereof” (Hidaka; Hiroyoshi, priority 1981, dated 1984).)
